For one assay, the target named is T1, BMPR1B (Homo sapiens, UniProt O00238).
T1 construct: purchased Eurofins DiscoverX KINOMEscan
The experiment in a line: KINOMEscan 1 μM, BMPR1B. The assay is classed as binding. The following applies: 1000 nM; Entrez BMPR1B; read-out: Percent Control. The source says:
(§1) Supplement cells-12-00287-s001.zip/File S2. KinomeScan data for the CAMKK2 probe and negative control.xlsx, sheet "SGC-CAMKK2-1" | column: Percent Control

Another assay has as its target T2, p38-alpha (Homo sapiens, UniProt Q16539).
T2 construct: purchased Eurofins DiscoverX KINOMEscan
The experiment in a line: KINOMEscan 1 μM, p38-alpha. In kind it is binding. The following applies: 1000 nM; Entrez MAPK14; read-out: Percent Control.
Source text: as §1

For a further assay, the target named is T3, DAPK2 (Homo sapiens, UniProt Q9UIK4).
T3 construct: purchased Eurofins DiscoverX KINOMEscan
The experiment in a line: KINOMEscan 1 μM, DAPK2. In kind it is binding. As to conditions: 1000 nM; Entrez DAPK2; read-out: Percent Control.
Source text: as §1

The target in the next assay is T4, PCTK1 (Homo sapiens, UniProt Q00536).
T4 construct: purchased Eurofins DiscoverX KINOMEscan
In words: DiscoverX KINOMEscan binding assay at 1 μM, PCTK1. As to conditions: PCTK1 (CDK16); Compound Concentration 1000 nM; read-out: Percent Control.
Source text: as §1

Another assay addresses T5, MYLK (Homo sapiens, UniProt Q15746).
T5 construct: purchased Eurofins DiscoverX KINOMEscan
The experiment in a line: KINOMEscan 1 μM, MYLK. The assay is classed as binding. The following applies: 1000 nM; Entrez MYLK; read-out: Percent Control.
Source text: as §1

For another assay, the target named is T6, HCK (Homo sapiens, UniProt P08631).
T6 construct: purchased Eurofins DiscoverX KINOMEscan
The experiment in a line: KINOMEscan 1 μM, HCK. In kind it is binding. As to conditions: 1000 nM; Entrez HCK; read-out: Percent Control.
Source text: as §1

Another assay concerns the target T7, CDK4-cyclinD1 (Homo sapiens, UniProt P11802).
T7 construct: purchased Eurofins DiscoverX KINOMEscan
The experiment in a line: KINOMEscan 1 μM, CDK4-cyclinD1. In kind it is binding. As to conditions: 1000 nM; Entrez CDK4; read-out: Percent Control.
Source text: as §1

For the next assay, the target named is T8, FGFR1 (Homo sapiens, UniProt P11362).
T8 construct: purchased Eurofins DiscoverX KINOMEscan
T8 sequence (P11362 22-822): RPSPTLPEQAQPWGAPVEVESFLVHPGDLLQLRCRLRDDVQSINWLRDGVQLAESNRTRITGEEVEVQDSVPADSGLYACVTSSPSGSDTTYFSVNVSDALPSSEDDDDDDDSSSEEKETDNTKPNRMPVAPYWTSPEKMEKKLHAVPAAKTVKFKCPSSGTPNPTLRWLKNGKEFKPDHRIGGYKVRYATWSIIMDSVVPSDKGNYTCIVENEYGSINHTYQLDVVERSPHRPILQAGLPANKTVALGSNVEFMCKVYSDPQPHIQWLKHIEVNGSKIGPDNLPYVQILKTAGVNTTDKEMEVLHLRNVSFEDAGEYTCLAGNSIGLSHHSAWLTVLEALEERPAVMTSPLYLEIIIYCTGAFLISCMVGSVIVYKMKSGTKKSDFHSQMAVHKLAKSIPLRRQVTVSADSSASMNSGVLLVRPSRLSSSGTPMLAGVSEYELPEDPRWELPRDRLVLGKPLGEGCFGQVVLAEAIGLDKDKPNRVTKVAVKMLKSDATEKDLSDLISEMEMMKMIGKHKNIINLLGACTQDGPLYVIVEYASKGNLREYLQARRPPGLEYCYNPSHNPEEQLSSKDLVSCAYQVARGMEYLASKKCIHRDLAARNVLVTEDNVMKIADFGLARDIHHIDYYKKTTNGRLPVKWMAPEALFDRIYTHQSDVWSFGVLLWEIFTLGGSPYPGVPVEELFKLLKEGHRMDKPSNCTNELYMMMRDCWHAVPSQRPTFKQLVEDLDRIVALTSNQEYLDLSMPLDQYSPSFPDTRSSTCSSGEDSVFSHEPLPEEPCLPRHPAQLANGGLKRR
In words: KINOMEscan 1 μM, FGFR1. The assay is classed as binding. The following applies: 1000 nM; Entrez FGFR1; read-out: Percent Control.
Source text: as §1

The next assay concerns the target T9, DYRK1A (Homo sapiens, UniProt Q13627).
T9 construct: purchased Eurofins DiscoverX KINOMEscan
The experiment in a line: KINOMEscan 1 μM, DYRK1A. The following applies: 1000 nM; Entrez DYRK1A; read-out: Percent Control. The assay is classed as binding.
Source text: as §1

The target of another assay is T10, ACVR1 (Homo sapiens, UniProt Q04771).
T10 construct: purchased Eurofins DiscoverX KINOMEscan
In words: KINOMEscan 1 μM, ACVR1. In kind it is binding. The following applies: 1000 nM; Entrez ACVR1; read-out: Percent Control.
Source text: as §1

A further assay concerns the target T11, AKT2 (Homo sapiens, UniProt P31751).
T11 construct: purchased Eurofins DiscoverX KINOMEscan
The experiment in a line: KINOMEscan 1 μM, AKT2. The following applies: 1000 nM; Entrez AKT2; read-out: Percent Control. In kind it is binding.
Source text: as §1

Assay [1] has as its target T12, YANK1 (Homo sapiens, UniProt Q8WU08).
T12 construct: purchased Eurofins DiscoverX KINOMEscan
The experiment in a line: DiscoverX KINOMEscan binding assay at 1 μM, YANK1. As to conditions: YANK1 (STK32A); Compound Concentration 1000 nM; read-out: Percent Control.
Source text: as §1

For another assay, the target named is T13, BRSK1 (Homo sapiens, UniProt Q8TDC3).
T13 construct: purchased Eurofins DiscoverX KINOMEscan
In words: KINOMEscan 1 μM, BRSK1. In kind it is binding. As to conditions: 1000 nM; Entrez BRSK1; read-out: Percent Control.
Source text: as §1

A further assay concerns the target T14, SBK1 (Homo sapiens, UniProt Q52WX2).
T14 construct: purchased Eurofins DiscoverX KINOMEscan
The experiment in a line: DiscoverX KINOMEscan binding assay at 1 μM, SBK1. As to conditions: Compound Concentration 1000 nM, read-out: Percent Control.
Source text: as §1

A further assay addresses T15, NEK5 (Homo sapiens, UniProt Q6P3R8).
T15 construct: purchased Eurofins DiscoverX KINOMEscan
The experiment in a line: KINOMEscan 1 μM, NEK5. The following applies: 1000 nM; Entrez NEK5; read-out: Percent Control. The assay is classed as binding.
Source text: as §1

The target in another assay is T16, CDKL5 (Homo sapiens, UniProt O76039).
T16 construct: purchased Eurofins DiscoverX KINOMEscan
The experiment in a line: KINOMEscan 1 μM, CDKL5. The following applies: 1000 nM; Entrez CDKL5; read-out: Percent Control. The assay is classed as binding.
Source text: as §1

Another assay addresses T17, IGF1R (Homo sapiens, UniProt P08069).
T17 construct: purchased Eurofins DiscoverX KINOMEscan
In words: KINOMEscan 1 μM, IGF1R. The assay is classed as binding. The following applies: 1000 nM; Entrez IGF1R; read-out: Percent Control.
Source text: as §1

The target of assay [2] is T18, RPS6KA4(Kin.Dom.1-N-terminal) (Homo sapiens, UniProt O75676).
T18 construct: RPS6KA4(Kin.Dom.1-N-terminal); purchased Eurofins DiscoverX KINOMEscan
The experiment in a line: KINOMEscan binding assay at 1 μM, RPS6KA4(Kin.Dom.1-N-terminal). The following applies: Compound Concentration 1000 nM; read-out: Percent Control. The source says: (§2) Supplement cells-12-00287-s001.zip/File S2. KinomeScan data for the CAMKK2 probe and negative control.xlsx, sheet "SGC-CAMKK2-1N" | column: Percent Control

The next assay deals with T19, PRKD2 (Homo sapiens, UniProt Q9BZL6).
T19 construct: purchased Eurofins DiscoverX KINOMEscan
In words: KINOMEscan at 1 μM, PRKD2. In kind it is binding. As to conditions: 1000 nM, read-out: Percent Control.
Source text: as §2

A further assay concerns the target T20, IKK-beta (Homo sapiens, UniProt O14920).
T20 construct: purchased Eurofins DiscoverX KINOMEscan
The experiment in a line: KINOMEscan at 1 μM, IKK-beta. The assay is classed as binding. The following applies: 1000 nM, read-out: Percent Control.
Source text: as §2

The next assay has as its target T21, SGK2 (Homo sapiens, UniProt Q9HBY8).
T21 construct: purchased Eurofins DiscoverX KINOMEscan
In words: KINOMEscan at 1 μM, SGK2. In kind it is binding. As to conditions: 1000 nM, read-out: Percent Control.
Source text: as §2

In the next assay the target is T22, PIM3 (Homo sapiens, UniProt Q86V86).
T22 construct: purchased Eurofins DiscoverX KINOMEscan
The experiment in a line: KINOMEscan at 1 μM, PIM3. The assay is classed as binding. As to conditions: 1000 nM, read-out: Percent Control.
Source text: as §2

The target of a further assay is T23, DDR1 (Homo sapiens, UniProt Q08345).
T23 construct: purchased Eurofins DiscoverX KINOMEscan
The experiment in a line: KINOMEscan at 1 μM, DDR1. The assay is classed as binding. The following applies: 1000 nM, read-out: Percent Control.
Source text: as §2

The target of a further assay is T24, PLK3 (Homo sapiens, UniProt Q9H4B4).
T24 construct: purchased Eurofins DiscoverX KINOMEscan
T24 sequence (Q9H4B4 whole entry): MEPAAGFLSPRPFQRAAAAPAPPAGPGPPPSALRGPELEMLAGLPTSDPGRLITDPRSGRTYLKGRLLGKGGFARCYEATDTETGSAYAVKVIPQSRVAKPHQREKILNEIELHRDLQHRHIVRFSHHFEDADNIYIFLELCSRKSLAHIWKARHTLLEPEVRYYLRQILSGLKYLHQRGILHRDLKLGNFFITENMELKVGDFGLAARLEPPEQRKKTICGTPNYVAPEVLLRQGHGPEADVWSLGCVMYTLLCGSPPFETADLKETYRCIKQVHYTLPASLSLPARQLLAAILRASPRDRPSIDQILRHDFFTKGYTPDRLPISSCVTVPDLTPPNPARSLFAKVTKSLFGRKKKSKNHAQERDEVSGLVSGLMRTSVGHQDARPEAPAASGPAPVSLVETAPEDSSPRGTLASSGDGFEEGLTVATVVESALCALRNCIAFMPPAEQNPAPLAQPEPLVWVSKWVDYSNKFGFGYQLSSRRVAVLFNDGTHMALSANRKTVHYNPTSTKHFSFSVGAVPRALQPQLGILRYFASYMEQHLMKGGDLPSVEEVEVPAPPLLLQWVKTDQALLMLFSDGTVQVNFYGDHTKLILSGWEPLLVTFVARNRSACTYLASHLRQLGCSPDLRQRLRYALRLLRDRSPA
In words: KINOMEscan at 1 μM, PLK3. As to conditions: 1000 nM, read-out: Percent Control. In kind it is binding.
Source text: as §2

The target of another assay is T25, FGFR2 (Homo sapiens, UniProt P21802).
T25 construct: purchased Eurofins DiscoverX KINOMEscan
The experiment in a line: KINOMEscan at 1 μM, FGFR2. The following applies: 1000 nM, read-out: Percent Control. In kind it is binding.
Source text: as §2

The next assay concerns the target T26, ADCK3 (Homo sapiens, UniProt Q8NI60).
T26 construct: purchased Eurofins DiscoverX KINOMEscan
In words: KINOMEscan at 1 μM, ADCK3. As to conditions: 1000 nM, read-out: Percent Control. In kind it is binding.
Source text: as §2

In the next assay the target is T27, ERK4 (Homo sapiens, UniProt P31152).
T27 construct: purchased Eurofins DiscoverX KINOMEscan
T27 sequence (P31152 whole entry): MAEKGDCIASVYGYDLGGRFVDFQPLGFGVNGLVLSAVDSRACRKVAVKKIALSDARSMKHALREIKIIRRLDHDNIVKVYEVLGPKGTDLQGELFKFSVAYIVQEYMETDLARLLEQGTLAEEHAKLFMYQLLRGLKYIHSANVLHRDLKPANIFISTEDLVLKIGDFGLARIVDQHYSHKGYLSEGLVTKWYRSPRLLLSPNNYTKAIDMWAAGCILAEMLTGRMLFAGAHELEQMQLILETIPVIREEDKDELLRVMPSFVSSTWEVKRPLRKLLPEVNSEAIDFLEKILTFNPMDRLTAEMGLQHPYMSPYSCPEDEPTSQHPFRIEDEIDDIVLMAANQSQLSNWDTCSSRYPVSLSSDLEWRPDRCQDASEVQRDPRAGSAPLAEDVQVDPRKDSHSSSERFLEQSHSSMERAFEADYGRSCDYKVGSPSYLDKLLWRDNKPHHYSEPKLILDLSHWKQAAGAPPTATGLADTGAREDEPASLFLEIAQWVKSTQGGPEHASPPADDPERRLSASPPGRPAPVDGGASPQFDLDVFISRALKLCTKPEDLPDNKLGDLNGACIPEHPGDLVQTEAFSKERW
In words: KINOMEscan at 1 μM, ERK4. The assay is classed as binding. The following applies: 1000 nM, read-out: Percent Control.
Source text: as §2

The next assay concerns the target T28, PIKFYVE (Homo sapiens, UniProt Q9Y2I7).
T28 construct: purchased Eurofins DiscoverX KINOMEscan
The experiment in a line: KINOMEscan at 1 μM, PIKFYVE. In kind it is binding. As to conditions: 1000 nM, read-out: Percent Control.
Source text: as §2

Assay [3] addresses T12, YANK1. In words: KINOMEscan at 1 μM, YANK1. In kind it is binding. As to conditions: 1000 nM, read-out: Percent Control.
Source text: as §2

A further assay deals with T29, TLK2 (Homo sapiens, UniProt Q86UE8).
T29 construct: purchased Eurofins DiscoverX KINOMEscan
T29 sequence (Q86UE8 whole entry): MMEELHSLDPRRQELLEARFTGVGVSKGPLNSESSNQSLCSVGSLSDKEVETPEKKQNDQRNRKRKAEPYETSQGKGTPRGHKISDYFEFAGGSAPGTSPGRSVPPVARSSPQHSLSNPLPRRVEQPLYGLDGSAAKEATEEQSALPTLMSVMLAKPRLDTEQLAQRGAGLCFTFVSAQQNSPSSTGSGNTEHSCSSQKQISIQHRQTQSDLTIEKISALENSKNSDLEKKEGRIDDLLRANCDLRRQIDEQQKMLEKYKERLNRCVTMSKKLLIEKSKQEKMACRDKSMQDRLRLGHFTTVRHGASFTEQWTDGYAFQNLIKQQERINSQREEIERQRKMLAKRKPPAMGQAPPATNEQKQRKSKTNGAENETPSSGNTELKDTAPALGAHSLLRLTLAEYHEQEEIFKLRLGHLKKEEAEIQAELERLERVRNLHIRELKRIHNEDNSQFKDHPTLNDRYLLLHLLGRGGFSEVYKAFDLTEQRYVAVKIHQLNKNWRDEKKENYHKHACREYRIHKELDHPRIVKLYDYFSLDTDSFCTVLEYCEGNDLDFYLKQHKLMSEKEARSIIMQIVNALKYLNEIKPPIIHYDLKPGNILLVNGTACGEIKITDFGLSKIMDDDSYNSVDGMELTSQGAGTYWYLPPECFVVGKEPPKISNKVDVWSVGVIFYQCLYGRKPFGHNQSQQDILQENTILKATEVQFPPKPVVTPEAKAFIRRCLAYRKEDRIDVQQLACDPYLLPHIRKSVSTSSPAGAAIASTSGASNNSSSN
In words: KINOMEscan at 1 μM, TLK2. In kind it is binding. The following applies: 1000 nM, read-out: Percent Control.
Source text: as §2

The target of another assay is T30, EPHA2 (Homo sapiens, UniProt P29317).
T30 construct: purchased Eurofins DiscoverX KINOMEscan
The experiment in a line: KINOMEscan at 1 μM, EPHA2. In kind it is binding. The following applies: 1000 nM, read-out: Percent Control.
Source text: as §2

The next assay addresses T31, SRMS (Homo sapiens, UniProt Q9H3Y6).
T31 construct: purchased Eurofins DiscoverX KINOMEscan
In words: KINOMEscan at 1 μM, SRMS. The assay is classed as binding. As to conditions: 1000 nM, read-out: Percent Control.
Source text: as §2

For a further assay, the target named is T32, MKNK1 (Homo sapiens, UniProt Q9BUB5).
T32 construct: purchased Eurofins DiscoverX KINOMEscan
The experiment in a line: KINOMEscan at 1 μM, MKNK1. In kind it is binding. As to conditions: 1000 nM, read-out: Percent Control.
Source text: as §2

SMILES strings stand for the structures.

From paper PMC9856672, “SGC-CAMKK2-1: A Chemical Probe for CAMKK2” (Cells, 2023) come the findings set out here.

T12 sequence (Q8WU08 whole entry): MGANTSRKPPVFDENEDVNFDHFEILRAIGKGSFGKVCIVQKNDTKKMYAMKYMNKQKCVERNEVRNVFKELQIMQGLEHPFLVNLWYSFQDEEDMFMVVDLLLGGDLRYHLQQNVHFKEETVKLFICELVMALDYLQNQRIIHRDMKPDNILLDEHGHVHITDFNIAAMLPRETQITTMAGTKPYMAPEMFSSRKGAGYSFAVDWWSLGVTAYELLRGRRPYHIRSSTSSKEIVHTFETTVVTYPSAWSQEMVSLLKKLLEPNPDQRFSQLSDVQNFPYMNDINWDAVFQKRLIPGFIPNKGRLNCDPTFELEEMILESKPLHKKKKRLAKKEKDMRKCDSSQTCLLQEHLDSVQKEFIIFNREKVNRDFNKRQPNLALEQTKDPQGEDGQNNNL
T14 sequence (Q52WX2 whole entry): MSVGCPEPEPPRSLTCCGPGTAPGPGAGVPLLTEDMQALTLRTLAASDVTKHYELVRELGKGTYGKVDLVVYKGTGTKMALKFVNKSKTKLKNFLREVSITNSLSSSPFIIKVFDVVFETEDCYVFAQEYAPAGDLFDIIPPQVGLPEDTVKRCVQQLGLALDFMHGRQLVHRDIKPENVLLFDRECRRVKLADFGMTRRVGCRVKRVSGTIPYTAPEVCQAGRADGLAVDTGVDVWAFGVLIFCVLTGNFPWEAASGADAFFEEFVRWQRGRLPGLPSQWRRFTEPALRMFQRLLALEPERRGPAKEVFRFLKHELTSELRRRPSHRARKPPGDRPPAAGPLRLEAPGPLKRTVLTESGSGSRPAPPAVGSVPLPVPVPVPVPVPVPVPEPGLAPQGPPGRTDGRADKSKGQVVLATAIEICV
T1 sequence (O00238 14-502): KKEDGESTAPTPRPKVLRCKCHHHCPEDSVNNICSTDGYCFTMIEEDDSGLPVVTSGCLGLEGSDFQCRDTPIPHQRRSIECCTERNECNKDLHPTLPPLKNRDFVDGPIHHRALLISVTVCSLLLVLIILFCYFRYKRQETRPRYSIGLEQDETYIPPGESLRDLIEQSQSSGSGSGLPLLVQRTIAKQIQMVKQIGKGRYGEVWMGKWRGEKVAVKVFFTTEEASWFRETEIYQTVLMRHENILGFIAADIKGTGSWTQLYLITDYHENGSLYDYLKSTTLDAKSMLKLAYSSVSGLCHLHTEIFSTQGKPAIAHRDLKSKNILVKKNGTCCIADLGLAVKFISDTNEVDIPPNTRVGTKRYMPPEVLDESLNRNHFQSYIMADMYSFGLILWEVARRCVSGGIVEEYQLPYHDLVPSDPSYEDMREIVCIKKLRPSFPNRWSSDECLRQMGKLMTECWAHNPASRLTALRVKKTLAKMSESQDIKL
T26 sequence (Q8NI60 163-647): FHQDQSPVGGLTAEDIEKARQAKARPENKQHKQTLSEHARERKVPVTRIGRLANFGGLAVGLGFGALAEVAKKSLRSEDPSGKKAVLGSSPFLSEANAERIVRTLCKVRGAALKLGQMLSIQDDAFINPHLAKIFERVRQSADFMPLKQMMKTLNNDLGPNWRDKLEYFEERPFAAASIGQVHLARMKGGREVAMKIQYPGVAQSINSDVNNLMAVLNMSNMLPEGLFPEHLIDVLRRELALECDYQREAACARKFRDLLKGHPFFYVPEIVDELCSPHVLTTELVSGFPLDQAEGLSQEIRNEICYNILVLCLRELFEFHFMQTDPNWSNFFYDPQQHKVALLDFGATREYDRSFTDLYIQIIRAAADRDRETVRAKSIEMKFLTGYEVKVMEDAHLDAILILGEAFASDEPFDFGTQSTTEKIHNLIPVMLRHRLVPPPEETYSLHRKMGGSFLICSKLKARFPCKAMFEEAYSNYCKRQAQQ

On to `Cc1cccc(-c2cnc3occ(-c4ccc(C(=O)O)c(C5CCCC5)c4)c3c2)c1` [SGC-CAMKK2-1 (YL-36)], for which the remaining binding at 1 µM at BMPR1B came out at 100%; at p38-alpha, 100%; on DAPK2, 94%; on PCTK1, 100%; on MYLK it was 76%; at HCK, 100%. Further, the remaining binding at 1 µM came out at 100% at CDK4-cyclinD1; 100% on FGFR1; 100% at DYRK1A; 83% on ACVR1; 100% at AKT2; 100% on YANK1 [1]. Also, the remaining binding at 1 µM at BRSK1 was determined as 82%; at SBK1 it was 100%; on NEK5, 100%; at CDKL5, 100%; on IGF1R, 100%.

On to `O=C(O)c1ccc(-c2coc3ncc(-c4ccccc4)cc23)cc1Cl` [SGC-CAMKK2-1N (UNC-YL-83)], for which the remaining binding at 1 µM turned out to be 100% in assay [2]; 91% at PRKD2; 87% at IKK-beta; 73% at SGK2; 66% at PIM3; 93% at DDR1. Besides, the remaining binding at 1 µM on PLK3 was found to be 91%; at FGFR2, 84%; at ADCK3 it was 68%; on ERK4, 58%; at PIKFYVE, 84%; on YANK1 [3], 84%. Also, the remaining binding at 1 µM amounted to 77% at TLK2, 76% at EPHA2, 79% on SRMS and 49% at MKNK1.
